This note sets out measurements from patent publication US11077090B2, “Compounds and compositions and uses thereof” (Sunovion Pharmaceuticals Inc., priority 2016, dated 2021).

The minimal effective dose is the smallest amount tested that counted as effective.

The subject of the assay is compound-treated mice. Briefly: Neuropharmacological assay (SmartCube): behavioral activity signature and minimal effective dose. The assay is classed as in vivo. Particulars: for minimal effective dose: Mus musculus, ip; for AD: ADHD (probability of activity signature) / AG: analgesic (probability of activity signature) / AX: anxiolytic (probability of activity signature) / CE: cognitive enhancer (probability of activity signature) / DP: anti-depressant (probability of activity signature) / MS: mood stabilizer (probability of activity signature) / PS: anti-psychotic (probability of activity signature) / SD: sedative hypnotic (probability of activity signature) / UN: uncharacterized CNS activity (probability of activity signature): i.p. 15 min before test, most efficacious dose(s). An outline of the steps:
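Video-recorded behavior is compared algorithmically against a reference-compound database, yielding class probabilities (best dose reported). Compounds given i.p. in NMP/PEG/propylene glycol 15 min pre-test at 3 doses; potency as MED, the dose (mpk, range usually 0.3–30) reaching ≥50% total activity.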

Setting [1] is: MED = dose having 50% or more total activity, read-out: Potency: minimal effective dose (MED).
Where [2] appears, read: MED = dose having 50% or more total activity, read-out: Potency: minimal effective dose (MED), binned.

Like-named read-outs stand apart in the source and are kept apart here. Bounds are passed on as bounds.

For `Cc1ccc2c(c1)[C@H](N)CO[C@H]2C.Cl` [Example 107], the “AD: ADHD (probability of activity signature)” value (shortened to “AD: ADHD”) is given as “+ (LOQ ≤ + <5%)”, the “AG: analgesic (probability of activity signature)” value (“AG: analgesic” for short) was “++ (5% ≤ ++ <25%)”, the “AX: anxiolytic (probability of activity signature)” value (“AX: anxiolytic” for short) is reported as “++ (5% ≤ ++ <25%)” and the “CE: cognitive enhancer (probability of activity signature)” value (from here on “CE: cognitive enhancer”) is reported as “++ (5% ≤ ++ <25%)”. The “DP: anti-depressant (probability of activity signature)” value (from here on “DP: anti-depressant”) was “+ (LOQ ≤ + <5%)”, the “MS: mood stabilizer (probability of activity signature)” value (shortened to “MS: mood stabilizer”) was “+ (LOQ ≤ + <5%)”, the “PS: anti-psychotic (probability of activity signature)” value (“PS: anti-psychotic” below) is given as “++ (5% ≤ ++ <25%)” and the “SD: sedative hypnotic (probability of activity signature)” value (“SD: sedative hypnotic” for short) was “+ (LOQ ≤ + <5%)”. Further, the “UN: uncharacterized CNS activity (probability of activity signature)” value (“UN: uncharacterized CNS activity” for short) was “+++ (25% ≤ +++ <50%)”. Under setting [1], the minimal effective dose fell in the range of 3 to 10 mg/kg.
For `CC[C@H]1OCc2cccc(C)c2[C@@H]1N.Cl` [Example 207], the “AD: ADHD” value is “+ (LOQ ≤ + <5%)”, the “AG: analgesic” value is on record as “++ (5% ≤ ++ <25%)”, the “AX: anxiolytic” value is reported as “++ (5% ≤ ++ <25%)” and the “CE: cognitive enhancer” value was “++ (5% ≤ ++ <25%)”. Besides, the “DP: anti-depressant” value is listed as “++ (5% ≤ ++ <25%)”, the “MS: mood stabilizer” value is listed as “+ (LOQ ≤ + <5%)”, the “PS: anti-psychotic” value is “++ (5% ≤ ++ <25%)” and the “SD: sedative hypnotic” value is “+ (LOQ ≤ + <5%)”. Further, the “UN: uncharacterized CNS activity” value was “++++ (50% ≤ ++++)”. Also, the minimal effective dose under setting [2] fell in the range of 3 to 10 mg/kg.
As to `Cc1ccc(C)c2c1COC[C@H]2N` (single isomer, unassigned) [Example 165], the “AD: ADHD” value was “+ (LOQ ≤ + <5%)”, the “AG: analgesic” value is “+ (LOQ ≤ + <5%)”, the “AX: anxiolytic” value was “++ (5% ≤ ++ <25%)” and the “CE: cognitive enhancer” value is on record as “++ (5% ≤ ++ <25%)”. Also, the “DP: anti-depressant” value was “++ (5% ≤ ++ <25%)”, the “MS: mood stabilizer” value was “+ (LOQ ≤ + <5%)”, the “PS: anti-psychotic” value is “++ (5% ≤ ++ <25%)” and the “SD: sedative hypnotic” value is “+ (LOQ ≤ + <5%)”. Also, the “UN: uncharacterized CNS activity” value is “++++ (50% ≤ ++++)”. The minimal effective dose under setting [2] fell in the range of 3 to 10 mg/kg.
`Cl.NC1COCc2ccc3c(c21)C1CCC3C1` (single isomer, unassigned) [Example 162]: the “AD: ADHD” value is listed as “+ (LOQ ≤ + <5%)”, the “AG: analgesic” value was “++ (5% ≤ ++ <25%)”, the “AX: anxiolytic” value is listed as “+++ (25% ≤ +++ <50%)” and the “CE: cognitive enhancer” value is “++ (5% ≤ ++ <25%)”. Moreover, the “DP: anti-depressant” value is given as “+ (LOQ ≤ + <5%)”, the “MS: mood stabilizer” value is listed as “+ (LOQ ≤ + <5%)”, the “PS: anti-psychotic” value was “++ (5% ≤ ++ <25%)” and the “SD: sedative hypnotic” value was “+ (LOQ ≤ + <5%)”. In addition, the “UN: uncharacterized CNS activity” value is given as “+++ (25% ≤ +++ <50%)”. Also, the “Potency: minimal effective dose (MED), binned” value (MED = dose having 50% or more total activity) is given as “B (>3 to 10 mpk)”.
For the compound `Cc1cccc2c1[C@H](N)COC2` (single isomer, unassigned) [Example 133], the “AD: ADHD” value is given as “+ (LOQ ≤ + <5%)”, the “AG: analgesic” value is given as “++ (5% ≤ ++ <25%)”, the “AX: anxiolytic” value is recorded as “++ (5% ≤ ++ <25%)” and the “CE: cognitive enhancer” value is on record as “++ (5% ≤ ++ <25%)”. Further, the “DP: anti-depressant” value is listed as “++ (5% ≤ ++ <25%)”, the “MS: mood stabilizer” value is “+ (LOQ ≤ + <5%)”, the “PS: anti-psychotic” value is on record as “+++ (25% ≤ +++ <50%)” and the “SD: sedative hypnotic” value is given as “+ (LOQ ≤ + <5%)”. Also, the “UN: uncharacterized CNS activity” value was “++++ (50% ≤ ++++)”. Moreover, under setting [1], the minimal effective dose is < 3 mg/kg.
With `Cc1ccc2c(c1)CO[C@H](C)[C@H]2N.Cl` [Example 96], the “AD: ADHD” value is reported as “+ (LOQ ≤ + <5%)”, the “AG: analgesic” value is given as “++ (5% ≤ ++ <25%)”, the “AX: anxiolytic” value is on record as “+++ (25% ≤ +++ <50%)” and the “CE: cognitive enhancer” value is “++ (5% ≤ ++ <25%)”. Also, the “DP: anti-depressant” value is on record as “++ (5% ≤ ++ <25%)”, the “MS: mood stabilizer” value is recorded as “+ (LOQ ≤ + <5%)”, the “PS: anti-psychotic” value is listed as “++ (5% ≤ ++ <25%)” and the “SD: sedative hypnotic” value is “+ (LOQ ≤ + <5%)”. Besides, the “UN: uncharacterized CNS activity” value is on record as “+++ (25% ≤ +++ <50%)”. The minimal effective dose under setting [1] was < 3 mg/kg.
Consider `CC[C@H]1OCc2ccc(F)cc2[C@@H]1N` [Example 181], for which the “AD: ADHD” value is reported as “+ (LOQ ≤ + <5%)”, the “AG: analgesic” value is reported as “++ (5% ≤ ++ <25%)”, the “AX: anxiolytic” value is “++ (5% ≤ ++ <25%)” and the “CE: cognitive enhancer” value is “++ (5% ≤ ++ <25%)”. The “DP: anti-depressant” value is “+ (LOQ ≤ + <5%)”, the “MS: mood stabilizer” value is “+ (LOQ ≤ + <5%)”, the “PS: anti-psychotic” value was “++ (5% ≤ ++ <25%)” and the “SD: sedative hypnotic” value is “+++ (25% ≤ +++ <50%)”. The “UN: uncharacterized CNS activity” value is “++++ (50% ≤ ++++)”. Further, the minimal effective dose under setting [2] was < 3 mg/kg.
As for `Cc1ccc2c(c1)[C@H](N)[C@H](C)OC2.Cl` (relative stereo) [Example 76, cis-3,6-Dimethylisochroman-4-amine hydrochloride], the “AD: ADHD” value was “+ (LOQ ≤ + <5%)”, the “AG: analgesic” value is “++ (5% ≤ ++ <25%)”, the “AX: anxiolytic” value is on record as “++ (5% ≤ ++ <25%)” and the “CE: cognitive enhancer” value is reported as “++ (5% ≤ ++ <25%)”. Also, the “DP: anti-depressant” value is reported as “++ (5% ≤ ++ <25%)”, the “MS: mood stabilizer” value is “+ (LOQ ≤ + <5%)”, the “PS: anti-psychotic” value was “++ (5% ≤ ++ <25%)” and the “SD: sedative hypnotic” value was “+ (LOQ ≤ + <5%)”. The “UN: uncharacterized CNS activity” value is given as “+++ (25% ≤ +++ <50%)”. Also, the minimal effective dose under setting [1] is < 3 mg/kg.
Consider `N[C@@H]1COCc2cccc(Cl)c21` [Example 127], for which the “AD: ADHD” value is reported as “+ (LOQ ≤ + <5%)”, the “AG: analgesic” value is given as “++ (5% ≤ ++ <25%)”, the “AX: anxiolytic” value is given as “++ (5% ≤ ++ <25%)” and the “CE: cognitive enhancer” value was “++ (5% ≤ ++ <25%)”. In addition, the “DP: anti-depressant” value is on record as “++ (5% ≤ ++ <25%)”, the “MS: mood stabilizer” value is recorded as “+ (LOQ ≤ + <5%)”, the “PS: anti-psychotic” value is listed as “++ (5% ≤ ++ <25%)” and the “SD: sedative hypnotic” value is reported as “+ (LOQ ≤ + <5%)”. Further, the “UN: uncharacterized CNS activity” value is recorded as “+++ (25% ≤ +++ <50%)”. Besides, the minimal effective dose under setting [1] was < 3 mg/kg.
Regarding `Cc1ccc2c(c1)CCOCC2N.Cl` (stereo not drawn) [Example 36], the “AD: ADHD” value is reported as “+ (LOQ ≤ + <5%)”, the “AG: analgesic” value is given as “++ (5% ≤ ++ <25%)”, the “AX: anxiolytic” value is listed as “++ (5% ≤ ++ <25%)” and the “CE: cognitive enhancer” value is reported as “+++ (25% ≤ +++ <50%)”. Besides, the “DP: anti-depressant” value was “++ (5% ≤ ++ <25%)”, the “MS: mood stabilizer” value is on record as “+ (LOQ ≤ + <5%)”, the “PS: anti-psychotic” value is reported as “++ (5% ≤ ++ <25%)” and the “SD: sedative hypnotic” value is given as “++ (5% ≤ ++ <25%)”. Further, the “UN: uncharacterized CNS activity” value is “++ (5% ≤ ++ <25%)”. For the same compound, under setting [1], the minimal effective dose lay within 3 to 10 mg/kg.
Turning to `Cc1ccc2c(c1)CO[C@@H](C)[C@H]2N.Cl` [Example 95], the “AD: ADHD” value is given as “+ (LOQ ≤ + <5%)”, the “AG: analgesic” value is reported as “++ (5% ≤ ++ <25%)”, the “AX: anxiolytic” value is “++ (5% ≤ ++ <25%)” and the “CE: cognitive enhancer” value is reported as “++ (5% ≤ ++ <25%)”. Also, the “DP: anti-depressant” value was “++ (5% ≤ ++ <25%)”, the “MS: mood stabilizer” value was “+ (LOQ ≤ + <5%)”, the “PS: anti-psychotic” value is “+++ (25% ≤ +++ <50%)” and the “SD: sedative hypnotic” value is listed as “+ (LOQ ≤ + <5%)”. The “UN: uncharacterized CNS activity” value was “+++ (25% ≤ +++ <50%)”. In addition, the minimal effective dose under setting [1] is < 3 mg/kg.
As to `CNC1CCOCc2ccc(C)cc21.Cl` (stereo not drawn) [Example 59], the “AD: ADHD” value is listed as “+ (LOQ ≤ + <5%)”, the “AG: analgesic” value is recorded as “+++ (25% ≤ +++ <50%)”, the “AX: anxiolytic” value is given as “++ (5% ≤ ++ <25%)” and the “CE: cognitive enhancer” value is “++ (5% ≤ ++ <25%)”. Also, the “DP: anti-depressant” value was “++ (5% ≤ ++ <25%)”, the “MS: mood stabilizer” value was “+ (LOQ ≤ + <5%)”, the “PS: anti-psychotic” value was “++ (5% ≤ ++ <25%)” and the “SD: sedative hypnotic” value is “++ (5% ≤ ++ <25%)”. The “UN: uncharacterized CNS activity” value is “+++ (25% ≤ +++ <50%)”. Under setting [1], the minimal effective dose fell in the range of 3 to 10 mg/kg.
